Our source for the IC50 values is US20170334899A1, “AMINO-SUBSTITUTED ISOTHIAZOLES” (Bayer Pharma Aktiengesellschaft, priority 2014, published 2017).

Experiment [1] concerns the target T1, catalytic domain of human Bub1 (amino acids 704-1085) (Homo sapiens, UniProt O43683).
T1 construct: catalytic domain of human Bub1 (amino acids 704-1085); His6 (N); made in house; host or cells: insect cells (Hi5)
Nature of the experiment: Bub1 kinase assay (TR-FRET). Format: biochemical. The conditions noted are these: 10 μM ATP, avg, read-out: Bub1 avg (IC50 [mol/l]). The procedure, abridged:
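Readout is the 665/620 nm TR-FRET ratio from anti-phosphoserine antibody, Eu-labelled anti-mouse IgG and streptavidin-XL665, scaled between no-enzyme and uninhibited controls. Reaction: 1 μM biotinylated peptide, 10 μM ATP, 60 min, 22 °C, after 15 min compound preincubation with His6-Bub1 (704-1085, insect-expressed, ~200 ng/ml).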

The next experiment relates to HeLa. In words: Proliferation assay (crystal violet), HeLa. The format is cell-based. The settings on record: Homo sapiens, HeLa, 96 h, HeLa cells; 4 days incubation; crystal violet staining; read-out: IC50 inhibition of proliferation, HeLa. A digest of the protocol:
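Four-day compound exposure (0.001-10 μM, 0.5% DMSO final) began 24 h after seeding 1000-5000 cells/well in medium with 10% fetal calf serum. Cell number read by crystal violet absorbance at 595 nm, scaled between day-zero plate and untreated control; 4-parameter fit gave IC50.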

T1 sequence (O43683 704-1085): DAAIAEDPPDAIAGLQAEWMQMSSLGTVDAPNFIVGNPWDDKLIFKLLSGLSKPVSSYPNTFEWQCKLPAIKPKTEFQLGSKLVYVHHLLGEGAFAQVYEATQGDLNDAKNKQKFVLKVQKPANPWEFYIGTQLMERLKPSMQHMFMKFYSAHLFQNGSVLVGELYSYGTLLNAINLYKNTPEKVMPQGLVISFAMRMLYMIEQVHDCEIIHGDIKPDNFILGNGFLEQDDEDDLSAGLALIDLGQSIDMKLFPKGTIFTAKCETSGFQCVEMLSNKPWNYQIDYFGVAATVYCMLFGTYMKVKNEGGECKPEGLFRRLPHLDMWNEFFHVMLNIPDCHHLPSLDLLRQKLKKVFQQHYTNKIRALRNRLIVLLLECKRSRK

As for `Cc1nsc(Nc2cnc(C(F)(F)F)cn2)c1C(=O)Nc1ccc(OC2CCN(C)CC2)nc1` [Example 220, 3-methyl-N-{6-[(1-methylpiperidin-4-yl)oxy]pyridin-3-yl}-5-{[5-(trifluoromethyl)pyrazin-2-yl]amino}-1,2-thiazole-4-carboxamide], the results for the IC50 (in experiment [1]; with HeLa) were over 20 µM and 6.2 µM, respectively. Turning to `Cc1nsc(Nc2cnc3ccccc3n2)c1C(=O)Nc1ccc(NCCC(=O)OC(C)(C)C)nc1` [Example 236, tert-butyl N-[5-({[3-methyl-5-(quinoxalin-2-ylamino)-1,2-thiazol-4-yl]carbonyl}amino)pyridin-2-yl]-beta-alaninate], the results for the IC50 (in experiment [1]; with HeLa) were over 20 µM and 4.1 µM, respectively. For `CNS(=O)(=O)c1ccc(NC(=O)c2c(C)nsc2Nc2cnc(C(F)(F)F)cn2)cc1` [Example 212, 3-methyl-N-[4-(methylsulfamoyl)phenyl]-5-{[5-(trifluoromethyl)pyrazin-2-yl]amino}-1,2-thiazole-4-carboxamide], in that order: over 20 µM and over 10 µM. On to `Cc1nsc(Nc2cnc3ccccc3n2)c1C(=O)Nc1cccc(NC(=O)C(C)(C)C)c1` [Example 186, N-{3-[(2,2-dimethylpropanoyl)amino]phenyl}-3-methyl-5-(quinoxalin-2-ylamino)-1,2-thiazole-4-carboxamide], for which the IC50 in experiment [1] is over 20 µM; in the experiment with HeLa, 6.5 µM.

For `Cc1nsc(Nc2cnc3ccccc3n2)c1C(=O)Nc1ccc(NC2CCCN(C(=O)OC(C)(C)C)C2)nc1` (centres unmarked) [Example 241, tert-butyl 3-{[5-({[3-methyl-5-(quinoxalin-2-ylamino)-1,2-thiazol-4-yl]carbonyl}amino)pyridin-2-yl]amino}piperidine-1-carboxylate], the values for the IC50 (in experiment [1]; with HeLa) were over 20 µM and 9.3 µM, respectively. For `Cc1nsc(Nc2ccc(C#N)cn2)c1C(=O)Nc1cccc(N)c1` [Example 180, N-(3-aminophenyl)-5-[(5-cyanopyridin-2-yl)amino]-3-methyl-1,2-thiazole-4-carboxamide], in that order: over 20 µM and over 10 µM. The corresponding values for `Cc1nsc(Nc2cncc(C(F)(F)F)n2)c1C(=O)Nc1ccc(OC2CCN(C(C)C)CC2)nc1` [Example 218, N-{6-[(1-isopropylpiperidin-4-yl)oxy]pyridin-3-yl}-3-methyl-5-{[6-(trifluoromethyl)pyrazin-2-yl]amino}-1,2-thiazole-4-carboxamide] are over 20 µM and 9.9 µM. For `CNS(=O)(=O)c1ccc(NC(=O)c2c(C)nsc2Nc2cc(C#N)ccn2)cc1` [Example 210, 5-[(4-cyanopyridin-2-yl)amino]-3-methyl-N-[4-(methylsulfamoyl)phenyl]-1,2-thiazole-4-carboxamide], in that order: over 20 µM and 1.9 µM. Consider `COC(=O)CCc1cccc(NC(=O)c2c(C)nsc2Nc2ccc(C#N)cn2)c1` [Example 176, methyl 3-{3-[({5-[(5-cyanopyridin-2-yl)amino]-3-methyl-1,2-thiazol-4-yl}carbonyl)amino]phenyl}propanoate], for which the IC50 in experiment [1] was over 20 µM; in the experiment on HeLa it was 5 µM. The corresponding values for `CCN(CC)CCNC(=O)c1cccc(NC(=O)c2c(C)nsc2Nc2cc(C#N)ccn2)c1` [Example 174, 5-[(4-cyanopyridin-2-yl)amino]-N-(3-{[2-(diethylamino)ethyl]carbamoyl}phenyl)-3-methyl-1,2-thiazole-4-carboxamide] are over 20 µM and over 10 µM. For `Cc1nsc(Nc2cncc(C(F)(F)F)n2)c1C(=O)Nc1ccc(OC2CCN(CC(F)F)CC2)c(F)c1` [Example 224, N-(4-{[1-(2,2-difluoroethyl)piperidin-4-yl]oxy}-3-fluorophenyl)-3-methyl-5-{[6-(trifluoromethyl)pyrazin-2-yl]amino}-1,2-thiazole-4-carboxamide], in that order: over 20 µM and 0.32 µM.

As to `Cc1nsc(Nc2cnc3ccccc3n2)c1C(=O)Nc1ccc(NC(=O)C(C)(C)C)cc1` [Example 185, N-{4-[(2,2-dimethylpropanoyl)amino]phenyl}-3-methyl-5-(quinoxalin-2-ylamino)-1,2-thiazole-4-carboxamide], the IC50 is over 20 µM in experiment [1] and over 10 µM in the experiment on HeLa. As for `Cc1nsc(Nc2cnc(C(F)(F)F)cn2)c1C(=O)Nc1ccc(F)c(OC2CCN(C(=O)OC(C)(C)C)CC2)c1` [Example 229, tert-butyl 4-(2-fluoro-5-{[(3-methyl-5-{[5-(trifluoromethyl)pyrazin-2-yl]amino}-1,2-thiazol-4-yl)carbonyl]amino}phenoxy)piperidine-1-carboxylate], the IC50 in experiment [1] is over 20 µM; in the experiment on HeLa it was 0.19 µM. For `Cc1nsc(Nc2cnc(C(F)(F)F)cn2)c1C(=O)Nc1ccc(OCCN)c(F)c1` [Example 221, 3-N-[4-(2-aminoethoxy)-3-fluorophenyl]-3-methyl-5-{[5-(trifluoromethyl)pyrazin-2-yl]amino}-1,2-thiazole-4-carboxamide], the IC50 in experiment [1] is over 20 µM; in the experiment on HeLa, 2.5 µM. The corresponding values for `Cc1nsc(Nc2cc(C#N)ccn2)c1C(=O)Nc1ccc(C(=O)OC(C)(C)C)cc1` [Example 182, tert-butyl 4-[({5-[(4-cyanopyridin-2-yl)amino]-3-methyl-1,2-thiazol-4-yl}carbonyl)amino]benzoate] are over 20 µM and 0.66 µM. For `Cc1nsc(Nc2cncc(C(F)(F)F)n2)c1C(=O)Nc1ccc(OCCN)nc1` [Example 196, N-[6-(2-aminoethoxy)pyridin-3-yl]-3-methyl-5-{[6-(trifluoromethyl)pyrazin-2-yl]amino}-1,2-thiazole-4-carboxamide], in that order: over 20 µM and over 10 µM. For `Cc1nsc(Nc2cc(C#N)ccn2)c1C(=O)Nc1ccc(OCCC(=O)OC(C)(C)C)nc1` [Example 200, tert-butyl 3-({5-[({5-[(4-cyanopyridin-2-yl)amino]-3-methyl-1,2-thiazol-4-yl}carbonyl)amino]pyridin-2-yl}oxy)propanoate], in that order: over 20 µM and over 10 µM. Take `Cc1nsc(Nc2cncc(C(F)(F)F)n2)c1C(=O)Nc1ccc(C(=O)OC(C)(C)C)cc1` [Example 193, tert-butyl tert-butyl 4-{[(3-methyl-5-{[6-(trifluoromethyl)pyrazin-2-yl]amino}-1,2-thiazol-4-yl)carbonyl]amino}benzoate]: the IC50 was over 20 µM in experiment [1] and 2.7 µM in the experiment with HeLa. For `Cc1nsc(Nc2cc(C#N)ccn2)c1C(=O)Nc1ccc(NC2CCCNC2)nc1` (centres unmarked) [Example 242, 5-[(4-cyanopyridin-2-yl)amino]-3-methyl-N-[6-(piperidin-3-ylamino)pyridin-3-yl]-1,2-thiazole-4-carboxamide], in that order: over 20 µM and over 10 µM. The corresponding values for `Cc1nsc(Nc2cnc3ccccc3n2)c1C(=O)Nc1ccc(Nc2ccc(F)c(F)c2)nc1` [Example 245, N-{6-[(3,4-difluorophenyl)amino]pyridin-3-yl}-3-methyl-5-(quinoxalin-2-ylamino)-1,2-thiazole-4-carboxamide] are over 20 µM and 9.9 µM.

Regarding `Cc1nsc(Nc2cncc(C(F)(F)F)n2)c1C(=O)Nc1ccc(C(=O)NCCN2CCCC(F)(F)C2)cc1` [Example 214, N-(4-{[2-(3,3-difluoropiperidin-1-yl)ethyl]carbamoyl}phenyl)-3-methyl-5-{[6-(trifluoromethyl)pyrazin-2-yl]amino}-1,2-thiazole-4-carboxamide], the values for the IC50 (in experiment [1]; in the experiment on HeLa) were over 20 µM and 4.6 µM, respectively. For `Cc1nsc(Nc2cncc(C(F)(F)F)n2)c1C(=O)Nc1ccc(OC2CCN(CCF)CC2)nc1` [Example 14, N-(6-{[1-(2-Fluoroethyl)piperidin-4-yl]oxy}pyridin-3-yl)-3-methyl-5-{[6-(trifluoro-methyl)pyrazin-2-yl]amino}-1,2-thiazole-4-carboxamide], in that order: at least 20 µM and 1.5 µM. For `Cc1nsc(Nc2cnc3ccccc3n2)c1C(=O)Nc1ccc(F)c(C(N)=O)c1` [Example 202, N-(3-carbamoyl-4-fluorophenyl)-3-methyl-5-(quinoxalin-2-ylamino)-1,2-thiazole-4-carboxamide], in that order: over 20 µM and over 10 µM. The corresponding values for `Cc1nsc(Nc2cnc(C(F)(F)F)cn2)c1C(=O)Nc1ccc(OCCN)nc1` [Example 197, N-[6-(2-aminoethoxy)pyridin-3-yl]-3-methyl-5-{[5-(trifluoromethyl)pyrazin-2-yl]amino}-1,2-thiazole-4-carboxamide] are 9.1 µM and 7.5 µM.

As to `Cc1nsc(Nc2cnc(C(F)(F)F)cn2)c1C(=O)Nc1cccc(S(C)(=O)=O)c1` [Example 195, 3-methyl-N-[3-(methylsulfonyl)phenyl]-5-{[5-(trifluoromethyl)pyrazin-2-yl]amino}-1,2-thiazole-4-carboxamide], the IC50 with HeLa was determined as 3.1 µM. Same read-out and setting: in the case of `Cc1nsc(Nc2cc(C#N)ccn2)c1C(=O)Nc1cccc(C(=O)NC2CC2)c1` [Example 175, 5-[(4-cyanopyridin-2-yl)amino]-N-[3-(cyclopropylcarbamoyl)phenyl]-3-methyl-1,2-thiazole-4-carboxamide] it was over 10 µM.
